# From patent US20080206149A1, “METHOD, DYE AND MEDICAMENT FOR STAINING THE INTERNAL LIMITING MEMBRANE, EPIRETINAL MEMBRANE, THE VITREOUS AND/OR THE CAPSULE OF AN EYE” (LUDWIG-MAXIMILIANS-UNIVERSITAT MUNCHEN, priority 2005, published 2008)
# Key:
# vitreous = assay: Staining of the vitreous during pars plana vitrectomy in porcine eyes; assay type: in vivo; details: graded by two examiners
# Description: All dyes were dissolved and diluted using balanced salt solution (BSS plus; Alcon Laboratories Inc., Fort Worth, Tex).
# Experiments were performed in animals (porcine eyes) and humans after approval of the local ethics committee had been obtained. All experiments were performed in compliance with the Declaration of Helsinki.
# Ophthalmic surgery consisted of a standard pars plana vitrectomy. First, the transparent vitreous was removed as completely as possible. Then fluid air exchange was performed in order to avoid an uncontrolled distribution of the dye in the vitreous cavity. The dye was then injected into the air filled globe. After a period of one minute, the dye was washed out by irrigation with BSS. This was followed by an injection of the dye in concentrations from 0.2% to 2%. The staining of the vitreous was graded by two examiners who also performed the surgical procedures.
# human lens capsule = assay: Capsulorhexis in patients with white cataracts (Example 2); assay type: in vivo
# Description: In previous experimental studies, we have investigated a number of vital dyes in-vivo and in-vitro in order to evaluate their staining characteristics and safety (C. Haritoglou, A. Yu, W. Freyer, S. G. Priglinger, C. Alge, K. Eibl, C. A. May, U. Welge-Luessen, A. Kampik, “An evaluation of novel vital dyes for intraocular surgery”, Invest Ophthalmol Vis Sci 46 (2005), pp. 3315-22; F. Schuettauf, C. Haritoglou, C. A. May, R. Rejdak, A. Mankowska, W. Freyer, K. Eibl, E. Zrenner, A. Kampik, S. Thaler, “Administration of novel dyes for intraocular surgery: an in vivo toxicity animal study”, Invest Ophthalmol Vis Sci 47 (2006), pp. 3573-8; C. Haritoglou, R. Tadayoni, C. A. May, C. A. Gass, W. Freyer, S. G. Priglinger, A. Kampik, “Short-term in vivo evaluation of novel vital dyes for intraocular surgery”, Retina 26 (2006), pp. 673-8). […] Prior to the application in humans, the toxicity of bromphenol blue had been thoroughly investigated in experimental settings including ex-vivo cell culture models and in-vivo animal studies with intraocular exposure times of up to seven days (C. Haritoglou, A. Yu, W. Freyer, S. G. Priglinger, C. Alge, K. Eibl, C. A. May, U. Welge-Luessen, A. Kampik, “An evaluation of novel vital dyes for intraocular surgery”, Invest Ophthalmol Vis Sci 46 (2005), pp. 3315-22; F. Schuettauf, C. Haritoglou, C. A. May, R. Rejdak, A. Mankowska, W. Freyer, K. Eibl, E. Zrenner, A. Kampik, S. Thaler, “Administration of novel dyes for intraocular surgery: an in vivo toxicity animal study”, Invest Ophthalmol Vis Sci 47 (2006), pp. 3573-8; C. Haritoglou, R. Tadayoni, C. A. May, C. A. Gass, W. Freyer, S. G. Priglinger, A. Kampik, “Short-term in vivo evaluation of novel vital dyes for intraocular surgery”, Retina 26 (2006), pp. 673-8). […] The data obtained from these toxicity studies underlined the high biocompatibility of bromphenol blue. Bromphenol blue (C19H10Br4O5S, FW 670) has been used in the past as a vital stain to probe the blood-brain barrier and as a protein stain and as a pH indicator. In the present example, we describe experience using bromphenol blue to stain the human lens capsule in patients with white cataracts. This investigation was approved by the local ethics committee and the Institutional Review Board (IRB). Written informed consent was obtained from all patients prior to surgery.
# Cataract formation was due to ocular trauma (n=2), uveitis (n=1) and unknown cause (n=2). Mean age was 59 years. All patients underwent a complete clinical examination before surgery. B-scan ultrasound of the globe was performed to rule out intraocular pathologies such as tumors or retinal detachments. Bromphenol blue powder was dissolved and diluted using BSS plus (balanced salt solution; Alcon Laboratories Inc., Fort Worth, Tex, USA) and sterilized using a 0.22 μm syringe filter. We used dye concentrations of approximately 0.1% (310 mOsm, pH 7.6). Five consecutive patients were included into this preliminary series of patients, three female and two male. Visual acuity was 20/400 or below before surgery and increased to 20/50 (mean) postoperatively. The dye was either injected into the air-filled (n=3) anterior chamber and carefully removed by injection of viscoelastic material (FIG. 7) immediately after injection or injected after having filled the anterior chamber with viscoelastic material (n=2) without prior air injection. In the latter case, the dye was evenly and gently distributed on the lens surface using the cannula and excessive dye was removed after completion of capsulorhexis (approximately one minute after application).
# lens capsule = assay: Staining of the lens capsule in enucleated porcine eyes; details: injected into air-filled anterior chamber, removed after one minute; clear porcine lens as background
# Description: Additionally, the staining characteristics of the lens capsule in enucleated porcine eyes with a postmortem time of nine hours were evaluated. The dyes were injected into the air-filled anterior chamber and removed by irrigation after one minute. Then, the cornea was removed and a capsulorhexis was performed with a bent needle. All procedures were taped on video.
# [1] = tested on: anterior segment of the eye; details: animals, dye exposure of seven days, cited from earlier work
# ARPE-19 cells [2] = assay: MTT assay, ARPE-19 cells; details: 0.2% and 0.02% dye, 10 minutes exposure, compared to BSS plus control
# Description: ARPE-19 cells, a human retinal pigment epithelial cell line (42), were purchased from ATCC (Manassas, Va., USA) and grown in a 1:1 mixture of Dulbecco's modified Eagles medium and Ham's F12 medium (DMEM/Ham's F12, Biochrom), supplemented with 10% FCS (Biochrom).
# For exposure of dyes RPE and ARPE-19 cells were kept for 24 hours under serum free conditions. After washing cells three times with PBS, cells were incubated for 10 minutes with 300 μl of BSS plus containing 0.2% or 0.02% of dye, respectively. […] The dye was then removed by carefully rinsing cells with BSS plus three times. After 24 hours incubation with serum containing media the cell proliferation assay was performed. RPE cells (p3-6) were seeded in 24-well plates and exposed to two concentrations (0.2 and 0.02%) of dyes. BSS plus alone and H2O2, (200 μL/mL) served as controls.
# The tetrazolium dye-reduction assay (MTT; 3-[4,5-dimethylthiazol-2-yl]-2,5-diphenyl tetrazolium bromide;) was used to determine cell survival rate. […] The medium was removed, cells were washed with PBS, and 1000 μL/well MTT solution (1.5 mL MTT stock, 2 mg/mL in PBS, plus 28.5 mL DMEM) was added. RPE cells were incubated at 37° C. for 1 hour. The formazan crystals that formed were dissolved by the addition of dimethyl sulfoxide (DMSO; 1000 μL/well). Absorption was measured by a scanning multiwell spectrophotometer at 550 nm (Molecular Probes, Garching, Germany). […] Experiments were performed in triplicate and repeated three times. RPE and ARPE-19 cells of the same passage incubated with BSS without addition of dyes served as control. Statistical comparison between dye concentrations was performed with SPSS (Mann-Whitney-U-Test).
# The MTT test as performed in this study is a well established test for the assessment of cell viability, but relies on calorimetric measurement of a blue (550 nm) formazan reaction product. This color overlaps with the absorption spectra of some of the dyes tested. […] Cell monolayers were treated with dyes as per the experiments described above but absorbance readings were performed without prior application of MTT. […]
# ARPE-19 cells [3] = assay: Life-dead assay (propidium iodide / Hoechst 33342), ARPE-19 cells; assay type: cell-based; details: ARPE-19 cells, 0.2% and 0.02% dye, 24 hours after treatment, compared to BSS plus
# Description: Confluent RPE and ARPE-19 cells were prepared and treated as described above. Cell viability was quantified based on a two-color fluorescence assay in which the nuclei of nonviable cells appear red because of staining by the membrane-impermeable dye propidium iodide (Sigma), whereas the nuclei of all cells were stained with the membrane-permeable dye Hoechst 33342 (Intergen, Purchase, N.Y.). […] For evaluation of cell viability, cells were washed in PBS and incubated with 2.0 μg/mL propidium iodide and 1.0 μg/mL Hoechst 33342 for 20 minutes at 37° C. Subsequently, cells were analyzed with an epifluorescence microscope (Axioskop; Zeiss, Göttingen, Germany). The labeled nuclei were then counted in fluorescence photomicrographs, and dead cells were expressed as a percentage of total nuclei in the field. The data are based on counts from three experiments performed in duplicate wells, with three to five documented representative fields per well.
# primary RPE cells = assay: MTT assay, primary RPE cells; details: 0.2% and 0.02% dye, 10 minutes exposure, compared to BSS plus control
# Description: In brief, whole eyes were thoroughly cleansed in 0.9% NaCl solution, immersed in 5% polyvinyl pyrrolidone iodine, and rinsed again in the sodiumchloride solution. The anterior segment from each donor eye was removed and the posterior poles were examined with the aid of a binocular stereomicroscope to confirm the absence of gross retinal disease. Next, the neural retinas were carefully peeled away from the RPE-choroid-sclera using fine forceps. The eye cup was rinsed with Ca^2+ and Mg^2+-free Hank's balanced salt solution, and filled with 0.25% trypsin (GIBCO, Karlsruhe, Germany) for 30 min at 37° C. The trypsin was carefully aspirated and replaced with Dulbecco's modified eagles medium (DMEM, Biochrom, Berlin, Germany) supplemented with 20% fetal calf serum (FCS, Biochrom). Using a pipette, the media was gently agitated, releasing the RPE into the media by avoiding damage to Bruch's membrane. The RPE cell solution was transferred to a 50 ml flask (Falcon, Wiesbaden, Germany) containing 20 ml of DMEM (Biochrom) supplemented with 20% FCS (Biochrom) and maintained at 37° C. and 5% carbon dioxide. […] After having grown to confluency (100%), primary RPE cells were subcultured and maintained in DMEM (Biochrom) supplemented with 10% FCS (Biochrom) at 37° C. and 5% carbon dioxide. Primary RPE of passage 3-6 and ARPE-19 cells were used for experiments.
# For exposure of dyes RPE and ARPE-19 cells were kept for 24 hours under serum free conditions. After washing cells three times with PBS, cells were incubated for 10 minutes with 300 μl of BSS plus containing 0.2% or 0.02% of dye, respectively. […] The dye was then removed by carefully rinsing cells with BSS plus three times. After 24 hours incubation with serum containing media the cell proliferation assay was performed. […]
# The tetrazolium dye-reduction assay (MTT; 3-[4,5-dimethylthiazol-2-yl]-2,5-diphenyl tetrazolium bromide;) was used to determine cell survival rate. […] Absorption was measured by a scanning multiwell spectrophotometer at 550 nm (Molecular Probes, Garching, Germany). […]
# [4] = approximately 0.1% dye, white cataract patients
structure (smiles),measurement,setting,value
"O=S1(=O)OC(c2cc(Br)c(O)c(Br)c2)(c2cc(Br)c(O)c(Br)c2)c2ccccc21 [Bromophenol blue, Bromophenole blue]",staining effect of the vitreous,vitreous; dye concentration 0.2%,good
same,staining effect of the vitreous,vitreous; dye concentration 2.0%,strong
same,contrast between the white lens and the stained lens capsule,human lens capsule; all patients,excellent contrast
same,visual acuity before surgery,human lens capsule; [4],20/400
same,visual acuity postoperatively (mean),human lens capsule; [4],20/50
same,staining of the anterior lens capsule,"human lens capsule; approximately 0.1%, both injection techniques",predictable and uniform staining
same,"complications such as corneal edema, inflammation or decrease of corneal endothelial cells",human lens capsule; follow-up up to five months postoperatively,no complications noted
same,penetration of the lens capsule by the dye,"human lens capsule; human, in vivo",did not penetrate the lens capsule
same,unwanted staining of other tissues such as the iris or the corneal endothelium,"human lens capsule; human, in vivo",no unwanted staining of other tissues
same,residual dye on the anterior lens capsule rim or any other ocular tissue,human lens capsule; one day postoperatively,no residual dye was detected
same,staining of the lens capsule in porcine eyes,lens capsule,stained well
same,clinical examinations: signs of inflammatory responses or toxicity in the anterior segment,[1]; also higher dye concentrations,did not reveal any signs of inflammatory responses or toxicity
same,histological abnormalities following enucleation,[1],no histological abnormalities
same,cell survival of ARPE-19 cells (MTT),ARPE-19 cells [2],no significant impact on cell survival
same,"cell viability, nuclei of nonviable cells labeled with propidium iodide",ARPE-19 cells [3],did not affect cell survival
same,cell survival of primary RPE cells (MTT),primary RPE cells,no influence on cell survival
